From US20100111888A1, “Organic Compounds and Compositions Having the Ability to Modulate Fragrance Compositions” (GIVAUDAN SA, priority 2007, published 2010)

Columns and labels:
Format in all cases: biochemical
[1] = molecular target: T1, CYP2A13 (Homo sapiens, UniProt Q16696); assay: Evaluation of test compounds as inhibitors of CYP2A13 (coumarin to Umbelliferone, fluorescence); details: substrate coumarin 0.006 mM; microsomes with 7 pmoles CYP2A13; 60 min at 37° C.; read-out: CYP2A13 inhibitor activity IC50
T1 construct: made in house; host or cells: Sf9 insect cells, recombinant baculovirus
T1 sequence (Q16696 1-494): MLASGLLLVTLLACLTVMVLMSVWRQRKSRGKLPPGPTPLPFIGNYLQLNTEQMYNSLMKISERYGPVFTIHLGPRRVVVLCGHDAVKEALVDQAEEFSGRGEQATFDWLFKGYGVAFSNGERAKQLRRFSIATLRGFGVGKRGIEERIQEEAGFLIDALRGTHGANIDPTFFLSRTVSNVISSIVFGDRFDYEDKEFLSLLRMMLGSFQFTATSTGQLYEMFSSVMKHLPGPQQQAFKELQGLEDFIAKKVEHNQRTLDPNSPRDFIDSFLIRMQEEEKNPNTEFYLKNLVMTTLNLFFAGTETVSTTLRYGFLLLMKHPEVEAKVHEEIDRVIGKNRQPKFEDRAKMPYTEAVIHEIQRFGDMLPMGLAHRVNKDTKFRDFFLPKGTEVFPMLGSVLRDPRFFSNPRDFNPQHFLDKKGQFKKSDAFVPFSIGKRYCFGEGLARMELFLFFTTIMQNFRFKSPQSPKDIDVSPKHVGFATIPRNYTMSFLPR
Excerpt: P450 reductase is commercially available (BD Biosciences Gentest, USA).
Microsomes were used which contained 7 pmoles CYP2A13.

[2] = molecular target: T2, CYP2A6 (Homo sapiens, UniProt P11509); assay: Evaluation of test compounds as inhibitors of CYP2A6 (coumarin to Umbelliferone, fluorescence); details: substrate coumarin 0.003 mM; microsomes with 2 pmoles CYP2A6; 60 min at 37° C.; read-out: CYP2A6 inhibitor activity IC50
T2 construct: purchased BD Biosciences Gentest, USA
T2 sequence (P11509 1-494): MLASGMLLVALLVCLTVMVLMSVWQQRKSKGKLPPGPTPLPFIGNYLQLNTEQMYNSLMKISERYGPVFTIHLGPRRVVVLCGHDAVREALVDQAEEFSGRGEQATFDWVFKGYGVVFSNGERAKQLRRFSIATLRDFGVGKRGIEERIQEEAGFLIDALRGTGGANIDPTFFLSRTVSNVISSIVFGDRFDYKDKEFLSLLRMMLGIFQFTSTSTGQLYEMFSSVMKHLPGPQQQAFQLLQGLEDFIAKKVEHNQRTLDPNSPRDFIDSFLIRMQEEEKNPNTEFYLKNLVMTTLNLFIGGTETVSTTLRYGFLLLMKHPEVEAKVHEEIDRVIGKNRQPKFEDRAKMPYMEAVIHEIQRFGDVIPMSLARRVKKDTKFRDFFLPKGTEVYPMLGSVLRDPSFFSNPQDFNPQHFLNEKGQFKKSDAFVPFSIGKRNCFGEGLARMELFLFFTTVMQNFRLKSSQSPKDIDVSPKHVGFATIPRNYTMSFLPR
Method: Test compounds that inhibit the activity of CYP2A6 are identified by using the same principle as described in Example 1, first paragraph.
A test compound (details see Table 2) was incubated with CYP2A6 in the presence of a cytochrome P450 reductase. CYP2A6 and P450 reductase were employed in form of microsomes (BD Biosciences Gentest, USA). Microsomes were used which contained 2 pmoles CYP2A6 and an amount of NADPH-P450 reductase corresponding to cytochrome c reductase activity of 87 nmole/(min×mg protein). […] The concentration of the standard substrate coumarin was 0.003 mM.
The samples were analysed spectrofluorometrically according to the procedure described in Example 1.

[3] = molecular target: T3, CYP2B6 (Homo sapiens, UniProt P20813); assay: Inhibition of human CYP2B6 (7-ethoxy-4-trifluoromethyl-coumarin, fluorescence); details: substrate 7-ethoxy-4-trifluoromethyl-coumarin 6 μM; microsomes with 1.5 pmoles CYP2B6; 40 min at 37° C.; read-out: CYP2B6 inhibitor activity IC50
T3 construct: made in house; host or cells: Sf9 insect cells, recombinant baculoviruses
T3 sequence (P20813 1-491): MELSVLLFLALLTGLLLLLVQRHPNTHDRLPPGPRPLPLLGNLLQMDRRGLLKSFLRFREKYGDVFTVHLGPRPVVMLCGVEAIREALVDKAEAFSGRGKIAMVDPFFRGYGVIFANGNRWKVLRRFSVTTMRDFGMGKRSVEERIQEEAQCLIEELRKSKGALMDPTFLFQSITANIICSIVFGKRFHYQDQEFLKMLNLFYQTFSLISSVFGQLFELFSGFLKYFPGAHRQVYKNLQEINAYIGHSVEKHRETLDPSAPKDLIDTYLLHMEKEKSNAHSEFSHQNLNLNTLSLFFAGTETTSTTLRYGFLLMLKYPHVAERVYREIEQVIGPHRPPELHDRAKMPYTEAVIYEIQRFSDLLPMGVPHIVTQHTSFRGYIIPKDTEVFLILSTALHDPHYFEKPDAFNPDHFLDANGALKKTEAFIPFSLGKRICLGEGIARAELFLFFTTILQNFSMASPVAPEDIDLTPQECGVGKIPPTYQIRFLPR
Method: Test compounds that inhibit the activity of CYP2B6 are identified by using the same principle as described in Example 1, first paragraph.
A test compound (details see Table 4) was incubated with CYP2B6 in the presence of a cytochrome P450 reductase. CYP2B6 and P450 reductase are produced using recombinant baculoviruses and co-expressing the two proteins in Sf9 insect cells as described in Example 1. Alternatively, microsomes containing CYP2B6 and the reductase are commercially available (BD Biosciences Gentest, USA). Microsomes were used which contained 1.5 pmoles CYP2B6. Potassium phosphate buffer final concentration was 100 mM, (1M stock, pH 7.4). […] The concentration of the standard substrate 7-ethoxy-4-trifluoromethyl-coumarin was 6 μM. […] The samples were incubated for 40 min at 37° C.

CCCCC/C(=C\c1ccccc1)C(C)=O [Compound ID 5, (E)-3-benzylideneoctan-2-one]
IC50 [1]: 0.6 µM
IC50 [2]: 141 µM

CCCCCC(Cc1ccccc1)C(C)=O (stereo not shown) [Compound ID 4, 3-phenylmethyloctan-2-one]
IC50 [1]: 4.8 µM
IC50 [2]: 148 µM

CCCC/C(=C\C1CC1)C(C)=O [Compound ID 1, (E)-3-(cyclopropylmethylene)heptan-2-one]
IC50 [1]: 0.5 µM
IC50 [3]: 3.9 µM
IC50 [2]: 3 µM

CCCCCC/C(=C\C1CC1)C(C)=O [Compound ID 2, (E)-3-(cyclopropylmethylene)nonan-2-one]
IC50 [1]: 1.1 µM
IC50 [3]: 3.5 µM
IC50 [2]: 8 µM

CCCCC/C(=C\C1CC1)C(C)=O [Compound ID 3, (E)-3-(cyclopropylmethylene)octan-2-one]
IC50 [1]: 0.3 µM
IC50 [3]: 4 µM
IC50 [2]: 7 µM
